Laboratory results reported in ChEMBL document CHEMBL4196024, “Discovery of 2,4,6-trisubstitued pyrido[3,4-d]pyrimidine derivatives as new EGFR-TKIs” (Eur J Med Chem, 2018).
Calls of active or inactive are those of the source. The rule behind the calls is not given here.

Key:
NCI-H1975 = experiment: Antiproliferative activity against human NCI-H1975 cells harboring EGFR L858R/T790M double mutant after 72 hrs by MTT assay; assay type: functional, cell-based; conditions: NCI-H1975, 72 h
HCC827 [1] = experiment: Antiproliferative activity against human HCC827 cells harboring EGFR E746-A750 deletion mutant after 72 hrs by MTT assay; assay type: functional, cell-based; conditions: HCC827, 72 h
[2] = target: Epidermal growth factor receptor (Homo sapiens, UniProt P00533, L858R); experiment: Inhibition of wild type EGFR L858R mutant (unknown origin) using Poly (Glu, Tyr) as substrate after 40 mins by kinase-Glo luminescence assay
[3] = target: Epidermal growth factor receptor (Homo sapiens, UniProt P00533, C797S/L858R/T790M); experiment: Inhibition of wild type EGFR L858R/T790M/C797S mutant (unknown origin) using Poly (Glu, Tyr) as substrate after 40 mins by kinase-Glo luminescence assay
A549 = experiment: Antiproliferative activity against human A549 cells harboring wild type EGFR after 72 hrs by MTT assay; assay type: cell-based; conditions: A549, 72 h
[4] = target: Epidermal growth factor receptor (Homo sapiens, UniProt P00533); experiment: Inhibition of wild type EGFR (unknown origin) using Poly (Glu, Tyr) as substrate after 40 mins by kinase-Glo luminescence assay
[5] = target: Epidermal growth factor receptor (Homo sapiens, UniProt P00533, L858R/T790M); experiment: Inhibition of wild type EGFR L858R/T790M double mutant (unknown origin) using Poly (Glu, Tyr) as substrate after 40 mins by kinase-Glo luminescence assay
HCC827 [6] = experiment: Induction of apoptosis in human HCC827 cells harboring EGFR E746-A750 deletion mutant assessed as late apoptotic cells at 3 uM after 24 hrs by Annexin V-FITC/propidium iodide staining based flow cytometry (reference value: 27.14%); assay type: functional
HCC827 [7] = experiment: Induction of apoptosis in human HCC827 cells harboring EGFR E746-A750 deletion mutant assessed as early apoptotic cells at 3 uM after 24 hrs by Annexin V-FITC/propidium iodide staining based flow cytometry (reference value: 1.34%); assay type: functional
[8] = test system: Epidermal growth factor receptor (Homo sapiens), P00533 [UNDEFINED MUTATION]; experiment: Inhibition of EGFR E746-A750 deletion mutant in human HCC827 cells assessed as reduction in EGFR phosphorylation after 8 hrs by Western blot analysis; assay type: cell-based
[9] = test system: Epidermal growth factor receptor (Homo sapiens), P00533 [UNDEFINED MUTATION]; experiment: Inhibition of EGFR E746-A750 deletion mutant in human HCC827 cells assessed as reduction in EGFR phosphorylation at 3.33 uM after 8 hrs by Western blot analysis; assay type: cell-based
[10] = test system: Epidermal growth factor receptor (Homo sapiens), P00533 [UNDEFINED MUTATION]; experiment: Inhibition of EGFR E746-A750 deletion mutant in human HCC827 cells assessed as reduction in ERK phosphorylation at 3.33 uM after 8 hrs by Western blot analysis; assay type: cell-based

Epidermal growth factor receptor (Homo sapiens, UniProt P00533, C797S/L858R/T790M), sequence (P00533 25-1210 T790M/C797S/L858R limits assumed): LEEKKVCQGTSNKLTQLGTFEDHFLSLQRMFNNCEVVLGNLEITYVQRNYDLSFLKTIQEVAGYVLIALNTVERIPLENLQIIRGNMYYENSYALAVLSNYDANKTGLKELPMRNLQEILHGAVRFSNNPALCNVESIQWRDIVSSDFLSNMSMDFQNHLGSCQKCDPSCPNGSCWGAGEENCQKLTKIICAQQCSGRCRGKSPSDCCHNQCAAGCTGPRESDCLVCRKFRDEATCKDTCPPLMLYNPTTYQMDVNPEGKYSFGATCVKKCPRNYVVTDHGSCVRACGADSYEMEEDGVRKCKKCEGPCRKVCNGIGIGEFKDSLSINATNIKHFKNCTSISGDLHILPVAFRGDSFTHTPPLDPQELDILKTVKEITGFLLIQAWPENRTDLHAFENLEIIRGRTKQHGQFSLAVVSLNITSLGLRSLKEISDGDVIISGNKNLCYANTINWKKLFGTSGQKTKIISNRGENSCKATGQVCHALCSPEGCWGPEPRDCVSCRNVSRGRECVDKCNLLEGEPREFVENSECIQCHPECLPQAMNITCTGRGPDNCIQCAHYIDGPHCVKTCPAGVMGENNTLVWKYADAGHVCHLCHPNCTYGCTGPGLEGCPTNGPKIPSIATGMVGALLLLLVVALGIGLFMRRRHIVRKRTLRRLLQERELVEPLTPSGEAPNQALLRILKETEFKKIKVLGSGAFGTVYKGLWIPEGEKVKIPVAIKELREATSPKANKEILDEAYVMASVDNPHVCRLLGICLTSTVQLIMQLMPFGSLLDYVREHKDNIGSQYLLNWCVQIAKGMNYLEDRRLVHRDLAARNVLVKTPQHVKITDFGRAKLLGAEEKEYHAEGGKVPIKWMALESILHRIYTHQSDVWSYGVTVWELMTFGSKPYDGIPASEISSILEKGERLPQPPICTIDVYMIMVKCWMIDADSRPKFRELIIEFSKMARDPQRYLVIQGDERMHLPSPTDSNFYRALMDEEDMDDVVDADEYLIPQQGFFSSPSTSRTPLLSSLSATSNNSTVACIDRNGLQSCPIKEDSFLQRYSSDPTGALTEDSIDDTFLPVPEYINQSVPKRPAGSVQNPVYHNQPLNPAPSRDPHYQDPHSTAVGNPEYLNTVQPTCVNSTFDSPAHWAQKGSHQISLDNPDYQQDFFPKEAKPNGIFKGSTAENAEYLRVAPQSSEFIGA
Epidermal growth factor receptor (Homo sapiens, UniProt P00533, L858R/T790M), sequence (P00533 25-1210 T790M/L858R limits assumed): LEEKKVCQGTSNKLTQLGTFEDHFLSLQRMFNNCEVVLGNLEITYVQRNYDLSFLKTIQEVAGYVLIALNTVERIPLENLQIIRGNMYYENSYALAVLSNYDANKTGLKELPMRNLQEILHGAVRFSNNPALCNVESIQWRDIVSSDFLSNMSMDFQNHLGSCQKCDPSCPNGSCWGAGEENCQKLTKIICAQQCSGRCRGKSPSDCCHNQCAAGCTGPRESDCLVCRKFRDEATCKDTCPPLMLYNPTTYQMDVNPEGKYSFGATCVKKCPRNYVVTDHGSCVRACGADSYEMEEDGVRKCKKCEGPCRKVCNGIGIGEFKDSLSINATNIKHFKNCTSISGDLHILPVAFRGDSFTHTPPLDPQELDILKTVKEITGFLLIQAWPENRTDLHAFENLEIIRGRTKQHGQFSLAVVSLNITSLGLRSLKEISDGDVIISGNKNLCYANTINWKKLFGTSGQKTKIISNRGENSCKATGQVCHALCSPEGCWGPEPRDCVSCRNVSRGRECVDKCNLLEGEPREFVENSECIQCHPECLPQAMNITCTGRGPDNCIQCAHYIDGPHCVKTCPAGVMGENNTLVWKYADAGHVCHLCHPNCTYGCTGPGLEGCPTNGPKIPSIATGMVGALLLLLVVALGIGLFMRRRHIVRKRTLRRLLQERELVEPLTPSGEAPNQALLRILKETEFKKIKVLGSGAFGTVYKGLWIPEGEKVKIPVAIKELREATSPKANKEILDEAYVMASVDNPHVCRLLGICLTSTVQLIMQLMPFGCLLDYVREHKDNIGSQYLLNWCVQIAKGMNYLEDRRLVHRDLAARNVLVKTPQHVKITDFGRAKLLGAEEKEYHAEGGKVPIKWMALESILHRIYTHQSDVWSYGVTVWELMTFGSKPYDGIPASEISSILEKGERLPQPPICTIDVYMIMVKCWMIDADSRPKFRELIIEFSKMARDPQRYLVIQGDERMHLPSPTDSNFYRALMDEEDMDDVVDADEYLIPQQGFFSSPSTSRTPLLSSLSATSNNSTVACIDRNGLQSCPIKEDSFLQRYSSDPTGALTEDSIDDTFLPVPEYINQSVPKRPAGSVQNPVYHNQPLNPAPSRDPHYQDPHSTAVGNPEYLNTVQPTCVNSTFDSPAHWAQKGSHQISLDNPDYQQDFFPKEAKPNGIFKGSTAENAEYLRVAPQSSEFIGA
Epidermal growth factor receptor (Homo sapiens, UniProt P00533, L858R), sequence (P00533 25-1210 L858R limits assumed): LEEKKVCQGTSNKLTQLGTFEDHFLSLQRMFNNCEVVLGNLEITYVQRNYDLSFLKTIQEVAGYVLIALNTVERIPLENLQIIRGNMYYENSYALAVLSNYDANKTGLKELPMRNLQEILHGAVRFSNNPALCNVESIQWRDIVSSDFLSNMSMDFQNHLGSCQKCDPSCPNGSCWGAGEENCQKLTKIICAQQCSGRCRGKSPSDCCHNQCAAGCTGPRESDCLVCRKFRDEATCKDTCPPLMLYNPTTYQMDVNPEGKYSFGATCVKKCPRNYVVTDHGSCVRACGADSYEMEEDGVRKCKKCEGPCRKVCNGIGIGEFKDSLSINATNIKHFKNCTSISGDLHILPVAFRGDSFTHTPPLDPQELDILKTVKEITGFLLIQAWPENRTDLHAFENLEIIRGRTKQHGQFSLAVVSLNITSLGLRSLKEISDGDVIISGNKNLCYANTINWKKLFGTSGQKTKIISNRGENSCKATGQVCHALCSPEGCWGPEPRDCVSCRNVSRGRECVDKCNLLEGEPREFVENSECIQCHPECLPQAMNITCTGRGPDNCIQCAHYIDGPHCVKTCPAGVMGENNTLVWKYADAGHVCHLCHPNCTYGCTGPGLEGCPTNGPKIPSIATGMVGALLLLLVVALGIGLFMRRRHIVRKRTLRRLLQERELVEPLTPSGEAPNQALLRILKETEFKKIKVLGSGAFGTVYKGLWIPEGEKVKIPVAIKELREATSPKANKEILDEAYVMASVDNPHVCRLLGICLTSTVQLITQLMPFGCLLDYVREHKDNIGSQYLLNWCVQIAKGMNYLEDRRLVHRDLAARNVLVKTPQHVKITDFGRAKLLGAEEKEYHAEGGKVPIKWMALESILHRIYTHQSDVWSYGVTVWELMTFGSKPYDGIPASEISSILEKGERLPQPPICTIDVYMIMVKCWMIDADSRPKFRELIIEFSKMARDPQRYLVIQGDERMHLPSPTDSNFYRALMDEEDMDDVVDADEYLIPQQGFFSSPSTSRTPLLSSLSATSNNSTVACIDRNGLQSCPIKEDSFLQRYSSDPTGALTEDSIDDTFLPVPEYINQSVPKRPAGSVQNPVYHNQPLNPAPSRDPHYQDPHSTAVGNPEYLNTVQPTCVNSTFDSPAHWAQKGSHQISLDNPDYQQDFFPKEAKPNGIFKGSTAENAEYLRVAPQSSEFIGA
Epidermal growth factor receptor (Homo sapiens, UniProt P00533), sequence (P00533 whole entry): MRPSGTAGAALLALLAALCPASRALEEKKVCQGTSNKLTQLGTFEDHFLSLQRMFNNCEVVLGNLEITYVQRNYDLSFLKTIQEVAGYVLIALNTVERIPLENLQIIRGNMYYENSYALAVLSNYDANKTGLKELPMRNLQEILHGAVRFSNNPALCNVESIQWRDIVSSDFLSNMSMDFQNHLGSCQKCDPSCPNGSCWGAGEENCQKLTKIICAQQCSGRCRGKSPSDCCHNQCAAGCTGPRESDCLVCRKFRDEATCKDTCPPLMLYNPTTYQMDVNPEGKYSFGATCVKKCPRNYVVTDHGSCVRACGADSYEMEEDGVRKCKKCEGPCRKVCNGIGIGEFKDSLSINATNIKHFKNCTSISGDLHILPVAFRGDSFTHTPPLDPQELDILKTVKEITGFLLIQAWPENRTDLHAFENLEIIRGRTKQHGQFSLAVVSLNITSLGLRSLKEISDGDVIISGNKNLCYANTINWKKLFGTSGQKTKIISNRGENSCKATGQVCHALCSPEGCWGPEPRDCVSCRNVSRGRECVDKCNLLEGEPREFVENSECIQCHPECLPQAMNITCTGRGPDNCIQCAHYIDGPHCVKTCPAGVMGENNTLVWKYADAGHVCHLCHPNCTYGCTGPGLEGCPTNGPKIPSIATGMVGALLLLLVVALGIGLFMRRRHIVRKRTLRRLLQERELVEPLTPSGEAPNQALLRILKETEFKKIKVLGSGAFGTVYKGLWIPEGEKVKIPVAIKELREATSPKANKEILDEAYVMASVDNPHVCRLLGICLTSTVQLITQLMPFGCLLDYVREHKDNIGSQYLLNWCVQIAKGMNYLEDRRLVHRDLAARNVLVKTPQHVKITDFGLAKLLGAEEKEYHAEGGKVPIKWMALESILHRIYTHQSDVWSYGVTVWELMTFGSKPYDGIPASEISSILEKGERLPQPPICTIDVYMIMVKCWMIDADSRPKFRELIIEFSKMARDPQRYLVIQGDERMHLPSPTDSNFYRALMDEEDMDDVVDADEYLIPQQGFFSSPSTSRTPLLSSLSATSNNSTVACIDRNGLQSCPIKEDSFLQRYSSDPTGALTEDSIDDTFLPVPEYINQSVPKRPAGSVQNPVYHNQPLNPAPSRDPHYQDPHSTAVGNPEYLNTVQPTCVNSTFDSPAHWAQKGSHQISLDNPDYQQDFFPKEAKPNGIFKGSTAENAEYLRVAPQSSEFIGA

SMILES | IC50 (NCI-H1975) [nM] | IC50 (HCC827 [1]) [nM] | IC50 [3] [nM] | IC50 (A549) [nM] | also measured
CN(C)C1CCN(c2ccc(Nc3cc4c(N5CCOCC5)nc(NCc5ccccc5)nc4cn3)nc2)CC1 | 7160 | 1640 | – | – | –
CN1CCN(c2ccc(Nc3cc4c(N5CCCC5)nc(Nc5ccc(F)c(Cl)c5)nc4cn3)nc2)CC1 | 520 | 1390 | – | – | –
CN1CCN(c2ccc(Nc3cc4c(N5CCOCC5)nc(Nc5cccc(C(F)(F)F)c5)nc4cn3)nc2)CC1 | – | > 10000 | – | – | –
Cn1cc(Nc2cc3c(N4CCOCC4)nc(Nc4ccccc4)nc3cn2)cn1 | – | > 10000 | – | – | –
CN1CCN(c2nc(Nc3ccc(F)cc3)nc3cnc(Nc4ccc(N5CCC(N(C)C)CC5)cn4)cc23)CC1 | 550 | 130 | 34.8 | 600 | –
CN1CCN(c2ccc(Nc3cc4c(N(C)C)nc(Nc5ccccc5)nc4cn3)cc2)CC1 | – | > 10000 | – | – | –
CN(C)C1CCN(c2ccc(Nc3cc4c(N5CCCC5)nc(Nc5ccccc5)nc4cn3)nc2)CC1 | 790 | 650 | 62.2 | 740 | IC50 [2]: 1.6 nM; IC50 [4]: 5.5 nM; IC50 [5]: 65.6 nM
CN(C)C1CCN(c2ccc(Nc3cc4c(N5CCOCC5)nc(Nc5ccc(F)c(Cl)c5)nc4cn3)nc2)CC1 | 1160 | 390 | – | 970 | –
CN(C)C1CCN(c2ccc(Nc3cc4c(N5CCOCC5)nc(NCc5cccnc5)nc4cn3)nc2)CC1 | – | > 10000 | – | – | –
CN1CCN(c2ccc(Nc3cc4c(N5CCOCC5)nc(Nc5cccnc5)nc4cn3)nc2)CC1 | – | 5430 | – | – | –
C=CC(=O)Nc1cc(Nc2nccc(-c3cn(C)c4ccccc34)n2)c(OC)cc1N(C)CCN(C)C [OSIMERTINIB] | – | 27 | – | – | Activity (HCC827 [6]): 68.1%; Activity (HCC827 [7]): 8.28%
CN(C)C1CCN(c2ccc(Nc3cc4c(N5CCOCC5)nc(Nc5cccnc5)nc4cn3)nc2)CC1 | 12400 | 1820 | – | – | –
CN(CCO)c1nc(Nc2ccccc2)nc2cnc(Nc3ccc(N4CCC(N(C)C)CC4)cn3)cc12 | 590 | 240 | 51.3 | 690 | –
CN(C)C1CCN(c2ccc(Nc3cc4c(N5CCOCC5)nc(NCc5ccccn5)nc4cn3)nc2)CC1 | > 10000 | 7900 | – | – | –
CN(C)C1CCN(c2ccc(Nc3cc4c(N5CCC(CO)CC5)nc(Nc5ccccc5)nc4cn3)nc2)CC1 | 420 | 64 | 82.9 | 690 | IC50 [2]: 3.2 nM; IC50 [4]: 2.1 nM; IC50 [5]: 44.1 nM
CN(C)C1CCN(c2ccc(Nc3cc4c(N5CCOCC5)nc(Nc5ccc(F)cc5F)nc4cn3)nc2)CC1 | 980 | 350 | 53.6 | 1140 | IC50 [2]: 2.1 nM; IC50 [4]: 0.9 nM; IC50 [5]: 30 nM

The next lines start with results.

IC50 (NCI-H1975) [nM] | IC50 (HCC827 [1]) [nM] | IC50 [3] [nM] | IC50 (A549) [nM] | SMILES | also measured
2050 | 270 | 23 | 1330 | CN1CCN(c2ccc(Nc3cc4c(N5CCCCC5)nc(Nc5ccccc5)nc4cn3)nc2)CC1 | IC50 [2]: 1.1 nM; IC50 [4]: 1.1 nM; IC50 [5]: 45 nM
820 | 1890 | – | 1300 | CN(C)CCN(C)c1ccc(Nc2cc3c(N4CCCC4)nc(Nc4ccccc4)nc3cn2)nc1 | –
680 | 890 | – | 740 | CN(C)C1CCN(c2ccc(Nc3cc4c(N5CCOCC5)nc(Nc5cccc(C(F)(F)F)c5)nc4cn3)nc2)CC1 | –
1020 | 240 | 15 | 540 | CN(C)C1CCN(c2ccc(Nc3cc4c(N5CCCCC5)nc(Nc5ccccc5)nc4cn3)nc2)CC1 | IC50 [2]: 4.9 nM; IC50 [4]: 0.9 nM; IC50 [5]: 23.2 nM
680 | 110 | 54.1 | 550 | CN(C)C1CCN(c2ccc(Nc3cc4c(N5CCOCC5)nc(Nc5ccccc5)nc4cn3)nc2)CC1 | IC50 [2]: 3.9 nM; Activity (HCC827 [6]): 64.85%; IC50 [4]: 4.6 nM; IC50 [5]: 57.7 nM; Activity (HCC827 [7]): 9.32%
1670 | 310 | 28 | 530 | CN(C)C1CCN(c2ccc(Nc3cc4c(N5CCOCC5)nc(Nc5ccc(F)cc5)nc4cn3)nc2)CC1 | IC50 [2]: 2.5 nM; IC50 [4]: 1.5 nM; IC50 [5]: 28.8 nM
300 | 80 | 51.9 | 420 | CN(CCCO)c1nc(Nc2ccc(F)cc2)nc2cnc(Nc3ccc(N4CCC(N(C)C)CC4)cn3)cc12 | –
400 | 44 | 7.2 | 1060 | CN(C)C1CCN(c2ccc(Nc3cc4c(N5CCC(CO)CC5)nc(Nc5ccc(F)cc5)nc4cn3)nc2)CC1 | IC50 [2]: 1.1 nM; inhibition [8]: Dose-dependent effect; inhibition [9]: inactive; Activity (HCC827 [6]): 74.26%; IC50 [4]: 10.4 nM; inhibition [10]: inactive; IC50 [5]: 34 nM; Activity (HCC827 [7]): 6.21%
2650 | 1660 | – | – | CN(C)C1CCN(c2ccc(Nc3cc4c(N5CCOCC5)nc(Nc5ccccn5)nc4cn3)nc2)CC1 | –
– | > 10000 | – | – | CN1CCN(c2ccc(Nc3cc4c(N5CCCC5)nc(Nc5ccccc5)nc4cn3)cc2)CC1 | –
> 10000 | 2510 | – | – | CN(C)C1CCN(c2ccc(Nc3cc4c(N5CCOCC5)nc(Oc5cccnc5)nc4cn3)nc2)CC1 | –
1280 | 200 | – | 1020 | CN1CCN(c2ccc(Nc3cc4c(N5CCOCC5)nc(Nc5ccccc5)nc4cn3)nc2)CC1 | –
> 10000 | 6910 | – | – | CN(C)C1CCN(c2ccc(Nc3cc4c(N5CCOCC5)nc(OC5CCOCC5)nc4cn3)nc2)CC1 | –
> 10000 | 1010 | – | > 10000 | CN1CCN(c2ccc(Nc3cc4c(N5CCCC5)nc(Nc5cccc(F)c5)nc4cn3)nc2)CC1 | –
2470 | 1350 | – | 8700 | CN1CCN(c2ccc(Nc3cc4c(N5CCCC5)nc(Nc5ccccc5)nc4cn3)nc2)CC1 | IC50 [2]: 2.3 nM; IC50 [4]: 4.4 nM; IC50 [5]: 85 nM
900 | 450 | 24.7 | 830 | CN(C)CCN(C)c1nc(Nc2ccc(F)cc2)nc2cnc(Nc3ccc(N4CCC(N(C)C)CC4)cn3)cc12 | –
> 10000 | > 10000 | – | – | CN(C)C1CCN(c2ccc(Nc3cc4c(N5CCOCC5)nc(OCC5CCOCC5)nc4cn3)nc2)CC1 | –
2170 | 3660 | – | – | CN1CCN(c2ccc(Nc3cc4c(N5CCCC5)nc(Nc5cnn(C)c5)nc4cn3)nc2)CC1 | –
7350 | 1160 | – | > 10000 | CN1CCN(c2ccc(Nc3cc4c(N(C)C)nc(Nc5ccccc5)nc4cn3)nc2)CC1 | –
